Measurements: patent US20050075382A1, “N-Aryl-2-cyanooxazolidinones and their derivatives” (priority 2003, published 2005)
Values after ≈ are worked out from the molar mass of the structure shown.

Tested on: Staphylococcus aureus (SAUR 9213)
Test: MIC by standard agar dilution method
Assay type: cell-based
Conditions: Mueller Hinton agar, overnight at 35° C.
From the text: The antibacterial agents of this invention have useful activity against a variety of organisms. The in vitro activity of compounds of this invention can be assessed by standard testing procedures such as the determination of minimum inhibitory concentration (MIC) by agar dilution as described in “Approved Standard. Methods for Dilution Antimicrobial Susceptibility Tests for Bacteria That Grow Aerobically”, 3rd. ed., published 1993 by the National Committee for Clinical Laboratory Standards, Villanova, Pa., USA. The in vitro MICs of test compounds are determined by a standard agar dilution method. A stock drug solution of each analog is prepared in the preferred solvent, usually DMSO:H2O (1:3). Serial 2-fold dilutions of each sample are made using 1.0 ml aliquots of sterile distilled water. To each 1.0 ml aliquot of drug is added 9 ml of molten Mueller Hinton agar medium. The drug-supplemented agar is mixed, poured into 15×100 mm petri dishes, and allowed to solidify and dry prior to inoculation. Vials of each of the test organisms are maintained frozen in the vapor phase of a liquid nitrogen freezer. Test cultures are grown overnight at 35° C. on the medium appropriate for the organism. Colonies are harvested with a sterile swab, and cell suspensions are prepared in Trypticase Soy broth (TSB) to equal the turbidity of a 0.5 McFarland standard. A 1:20 dilution of each suspension is made in TSB. The plates containing the drug supplemented agar are inoculated with a 0.001 ml drop of the cell suspension using a Steers replicator, yielding approximately 10^4 to 10^5 cells per spot. The plates are incubated overnight at 35° C. Following incubation the Minimum Inhibitory Concentration (MIC μg/ml), the lowest concentration of drug that inhibits visible growth of the organism, is read and recorded.

SMILES | MIC
N#C[C@H]1CN(c2ccc(N3CCOCC3)c(F)c2)C(=O)O1 [Example 2, (5R)-3-(3-fluoro-4-morpholin-4-ylphenyl)-2-oxo-1,3-oxazolidine-5-carbonitrile] | 8 µg/mL (≈ 27.5 µM)
Cc1nnc(-c2ccc(N3C[C@H](C#N)OC3=O)cc2F)s1 [Example 4, (5R)-3-[3-fluoro-4-(5-methyl-1,3,4-thiadiazol-2-yl)phenyl]-2-oxo-1,3-oxazolidine-5-carbonitrile] | 4 µg/mL (≈ 13.1 µM)

Now those with a lower MIC, led by results:

MIC | SMILES
1 µg/mL (≈ 2.96 µM) | N#C[C@H]1CN(c2ccc(C3CCS(=O)(=O)CC3)c(F)c2)C(=O)O1 [Example 1, (5R)-3-[4-(1,1-dioxidotetrahydro-2H-thiopyran-4-yl)-3-fluorophenyl]-2-oxo-1,3-oxazolidine-5-carbonitrile]
0.5 µg/mL (≈ 1.77 µM) | N#C[C@H]1CN(c2ccc(-c3ccncc3)c(F)c2)C(=O)O1 [Example 5, (5R)-3-(3-fluoro-4-pyridin-4-ylphenyl)-2-oxo-1,3-oxazolidine-5-carbonitrile]
2 µg/mL (≈ 5.6 µM) | N#C[C@H]1CN(c2cc(F)c(N3CCS(=O)(=O)CC3)c(F)c2)C(=O)O1 [Example 3, (5R)-3-[4-(1,1-dioxidothiomorpholin-4-yl)-3,5-difluorophenyl]-2-oxo-1,3-oxazolidine-5-carbonitrile]
